According to patent US12576085B2, “Combination comprising an ATP analog and an adenosine receptor antagonist or a nucleobase/nucleoside analog for the treatment of cancer” (priority 2010, dated 2026):
Values belong to the molecule of their own block, whether it stands above or below them.

Tests used:
[1] = tested on: T84 cells; assay: Short-circuit current (ISC, Cl- secretion) in T84 cells in Ussing chambers; type: cell-based, human; details: for effect of antagonist on currents induced by imatinib and adenosine: 10 μM antagonist after 100 μM imatinib and 1 μM adenosine; for currents on apical addition of the TKI / increase in ISC on basolateral addition of the compound alone: erlotinib 20 μM, gefitinib 100 μM; for increase in ISC on basolateral addition of the compound alone: NBMPR 10 μM, imatinib 100 μM, no extracellular adenosine added
Description: T84 cells were routinely grown in DMEM/F12 (1:1) cell culture media with 10% FBS, 1 mM sodium pyruvate, 1× penicillin/streptomycin and 10 mM HEPES. For experiments described in this report, T84 cells were grown on 12 mm snapwell inserts for 6-8 days with media changes every 2-3 days. […] Compounds were added in small aliquots to the basolateral or apical chamber and the secretory response was measured as an increase in short-circuit current (ISC) due to Cl^− secretion and was monitored as a function of time.

[2] = cited from earlier work
[3] = tested on: adenine nucleobase transporters; details: read-out: IC50 for inhibition of adenine transport; 1 μM [3H]adenine, hRPTCs, sodium buffer pH 7.4, 2 minute incubation
Description: Human renal proximal tubule cells (hRPTCs) were seeded in 12-well plates at densities of 10^5 cells/well and grown for 7 days with medium changes every 3-4 days. On the day of experiments, growth medium was aspirated and cells were washed twice with 1.5 ml of 20 mM Tris-HCl buffer (pH 7.4) containing 150 mM NaCl, 1.2 mM MgCl2 and 1 mM CaCl2 (hereafter referred to as sodium buffer). […] At the end of 2 minute incubations, cells were washed twice with sodium buffer and intracellular accumulation of [^3H]adenine was determined by solubilizing cells with 5% Triton-X-100 and subsequent determination of radioactivity in a scintillation counter. Data are presented as percent of values obtained in the absence of a competitor (controls). Resulting concentration-effect curves were analyzed by nonlinear regression analysis using Graph Pad Prism software version 4.0 (Graph Pad Software Inc., San Diego, CA) to obtain IC50 values for the compounds.

[4] = patients treated with erlotinib; cited from earlier work

Structure (SMILES): Cn1c(=O)c2[nH]c(-c3ccccc3)nc2n(C)c1=O [8-PT, 8-phenyltheophylline]
effect of antagonist on ISC induced by adenosine then NBMPR ([1]; 10 μM 8-PT after 1 μM adenosine and 10 μM NBMPR, basolateral, FIG. 4): ISC returned to baseline levels | effect of antagonist on currents induced by erlotinib and adenosine ([1]; 10 μM 8-PT after 20 μM erlotinib and 1 μM adenosine, basolateral, FIG. 8): abolished | effect of antagonist on currents induced by gefitinib and adenosine ([1]; 10 μM 8-PT after 100 μM gefitinib and 1 μM adenosine, basolateral, FIG. 9): abolished | effect of antagonist on currents induced by apical erlotinib or gefitinib ([1]; 10 μM 8-PT apical, FIG. 12): abolished | induction of ISC by adenosine after pretreatment with antagonist ([1]; 10 μM 8-PT basolateral prior to 1 μM adenosine basolateral, FIG. 7 panel C): no induction of ISC | effect of antagonist on currents induced by imatinib and adenosine ([1]; basolateral, FIG. 10): abolished | effect of antagonist on ISC induced by NBMPR then adenosine ([1]; 8-PT after 10 μM NBMPR and 1 μM adenosine, basolateral, FIG. 6): reversed the increase in ISC to baseline activity

Structure (SMILES): COc1cc2ncnc(Nc3ccc(F)c(Cl)c3)c2cc1OCCCN1CCOCC1 [gefitinib]
currents on apical addition of the TKI ([1]; FIG. 12): slow increase in currents | increase in ISC on basolateral addition of the compound alone ([1]; basolateral): slow but steady increase in ISC similar to that of NBMPR

Structure (SMILES): O=[N+]([O-])c1ccc(CSc2ncnc3c2ncn3[C@@H]2O[C@H](CO)[C@@H](O)[C@H]2O)cc1 [NBMPR, nitrobenzylmercaptopurine riboside]
ISC on addition of NBMPR after adenosine ([1]; 10 μM NBMPR after 1 μM adenosine, basolateral, FIG. 4): much higher ISC | induction of currents by NBMPR (retest) ([1]; 20 μM NBMPR basolateral, FIG. 7 panel B): Induction of currents | increase in ISC on basolateral addition of the compound alone ([1]; basolateral): steady increase in ISC with time

Structure (SMILES): O=c1[nH]cc(F)c(=O)[nH]1 [5-FU, 5-fluorouracil]
half-life [2]: 20 min

IC50 [3]: 50 µM
Structure (SMILES): CCN(CC)CCNC(=O)c1c(C)[nH]c(/C=C2\C(=O)Nc3ccc(F)cc32)c1C [sunitinib]

Structure (SMILES): C#Cc1cccc(Nc2ncnc3cc(OCCOC)c(OCCOC)cc23)c1 [erlotinib]
currents on apical addition of the TKI ([1]; FIG. 12): slow increase in currents | increase in ISC on basolateral addition of the compound alone ([1]; basolateral): increase in ISC similar to that of NBMPR | patients who develop diarrhea [4]: 30%

Structure (SMILES): Nc1ncnc2c1ncn2[C@@H]1O[C@H](CO)[C@@H](O)[C@H]1O [adenosine]
ISC on addition of adenosine after NBMPR ([1]; 1 μM adenosine after 10 μM NBMPR, basolateral, FIG. 6): substantial increase in ISC | currents on addition of adenosine after erlotinib ([1]; 1 μM adenosine after 20 μM erlotinib, basolateral, FIG. 8): substantial induction of currents | currents on addition of adenosine after gefitinib ([1]; 1 μM adenosine after 100 μM gefitinib, basolateral, FIG. 9): substantial induction of currents | currents on addition of adenosine after imatinib ([1]; 1 μM adenosine after 100 μM imatinib, basolateral, FIG. 10): substantial induction of currents | currents on addition of adenosine to apical and both sides ([1]; 1 μM adenosine, apical or both sides versus basolateral, FIG. 11): much higher currents than on the basolateral side alone | ISC with increasing concentrations of adenosine ([1]; adenosine basolateral in 1 μM increments, FIG. 7 panel A): ISC increased

IC50 [3]: ≥ 100 µM
Structure (SMILES): COc1cc2c(Nc3ccc(Br)cc3F)ncnc2cc1OCC1CCN(C)CC1 [vandetanib]

Structure (SMILES): Cn1c(=O)c2[nH]cnc2n(C)c1=O [theophylline]
effect of antagonist on currents induced by imatinib and adenosine ([1]; basolateral, FIG. 10): abolished | effect of antagonist on adenosine induced increase in ISC ([1]; 10 μM antagonist, adenosine alone, FIG. 5): blocked
